In patent publication US9533964B2, “Piperazine substituted bridged spiro[2.4]heptane derivatives as ALX receptor agonists” (Actelion Pharmaceuticals Ltd, priority 2013, dated 2017):

Columns and labels:
[1] = Plasma stability assay, rat serum; type: in vitro ADME
Procedure: (§1) Rat or human serum adjusted at pH 7.4 with lactic acid or ammonium hydroxide, were equilibrated at 37° C. under orbital shaking in an incubator containing 5% CO2. The reaction was initiated by the addition of 1 μM of compounds (1.5 μl of 1 mM stock solution in DMSO in 1498.5 μl of plasma). At 0.01, 0.25, 0.5, 1, 2, 3, 4 and 6 h, aliquots (100 μl) were transferred in a 96 well plate containing 300 μl MeOH placed on ice to stop the reaction. After vortexing for 20 min at 1400 rpm on an Eppendorf thermomixer, the plates were centrifuged at 3220 g for 20 min at 4° C. and the supernatants were analyzed with LC-MS/MS. Calibration samples in plasma containing 0.1% of dichlorvos were prepared and analysed in parallel to the incubation samples to allow the quantification. Half lives (T1/2) in hours were then calculated. In addition the remaining concentration of the respective compound after time Tlast relative to the concentration at the beginning has been determined (table 2).

[2] = target: T1, recombinant human ALX receptor (Homo sapiens, UniProt P25090); test: Intracellular calcium measurements (FLIPR), ALX receptor agonistic activity; type: cell-based; settings: HEK293-hALXR-Gα16 cells; median of n replications; normalized to WKYMVm 10 nM; read-out: EC50, agonistic activity with respect to the ALX receptor
T1 construct: expressed in transfected cells; host or cells: HEK293 (HEK293-hALXR-Gα16)
T1 sequence (P25090 1-351): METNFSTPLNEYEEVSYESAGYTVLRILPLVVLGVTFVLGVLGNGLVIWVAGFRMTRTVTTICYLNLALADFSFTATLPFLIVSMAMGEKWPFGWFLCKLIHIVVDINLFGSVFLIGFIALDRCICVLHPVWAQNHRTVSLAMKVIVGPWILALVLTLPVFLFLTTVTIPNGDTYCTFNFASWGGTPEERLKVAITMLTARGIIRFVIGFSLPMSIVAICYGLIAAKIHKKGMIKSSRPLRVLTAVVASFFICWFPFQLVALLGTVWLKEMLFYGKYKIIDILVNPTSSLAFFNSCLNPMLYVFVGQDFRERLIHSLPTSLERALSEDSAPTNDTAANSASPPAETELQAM
Procedure: The ALX receptor agonistic activity of the compounds of formula (I) is determined in accordance with the following experimental method.
Intracellular Calcium Measurements:
Cells expressing recombinant human ALX receptor and the G-protein Gα16 (HEK293-hALXR-Gα16) were grown to 80% confluency in Growing Medium (GM). Cells were detached from culture dishes with a cell dissociation buffer (Invitrogen, 13151-014), and collected by centrifugation at 1′000 rpm at rt for 5 min in Assay Buffer (AB) (equal parts of Hank's BSS (Gibco, 14065-049) and DMEM without Phenol Red (Gibco, 11880-028)). After 60 min incubation at 37° C. under 5% CO2 in AB supplemented with 1 μM Fluo-4 (AM) (Invitrogen, F14202) and 20 mM HEPES (Gibco, 15630-056), the cells were washed and resuspended in AB. They were then seeded onto 384-well FLIPR assay plates (Greiner, 781091) at 50′000 cells in 70 μl per well and sedimented by centrifugation at 1′000 rpm for 1 min. Stock solutions of test compounds were made up at a concentration of 10 mM in DMSO, and serially diluted in AB to concentrations required for activation dose response curves. WKYMVm (Phoenix Peptides) was used as a reference agonist. […] Changes in fluorescence were monitored before and after the addition of test compounds at lex=488 nm and lem=540 nm. […]

[3] = Plasma stability assay, human serum; type: in vitro ADME
Procedure: as §1

Question: What does the source list for `Cc1ccc(C2(NC(=O)C3C(C(=O)NCCN4CCN(C)CC4)C4CCC3C43CC3)CC2)cc1` [Example 1, (5R)-N^5-(1-(p-tolyl)cyclopropyl)-(6R)-N^6-(2-(4-methylpiperazin-1-yl)ethyl)-(4S,7R)-[4,7-ethylene-spiro[2.4]heptane]-5,6-dicarboxamide]?
Answer: remaining concentration at Tlast ([1]; Tlast 6 h, 1 μM, 37° C.): 100%; half-life at 1 μM ([1]; pH 7.4, 37° C.): > 6 h; EC50 [2]: 9.4 nM; remaining concentration at Tlast ([3]; Tlast 6 h, 1 μM, 37° C.): 82%; half-life at 1 μM ([3]; pH 7.4, 37° C.): > 6 h
